Experimental data as given in PubChem BioAssay AID1918957 (Molecular Pharmacology Branch, DTP, NCI, 2023).

Tested on: NCI-H1876 complex spheroid viability
Experiment: Anticancer human tumor NCI-H1876 cell line growth inhibition [LSD1];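 note: spheroids exposed to compounds for one week before readout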;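 for viability, T/C: 100% = DMSO vehicle-treated spheroids so lower means fewer viable cells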
Conditions: for IC50: curve of first compound; for viability, T/C: stronger effect = lower value
Outline: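 Complex spheroids of tumor cells with HUVEC and human MSCs, exposed to iadademstat combined with other agents. Each agent tested in half-log steps from near clinical Cmax (else 10 microM top), DMSO ≤0.25%.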

[1] = second compound 0.1 µM, first compound 0.000316 µM
[2] = second compound 0.1 µM, first compound 0.001 µM
[3] = second compound 0.1 µM, first compound 0.00316 µM
[4] = second compound 0.1 µM, first compound 0.01 µM
[5] = second compound 0.1 µM, first compound 0.0316 µM
[6] = second compound 0.1 µM, first compound 0.1 µM
[7] = second compound 0.316 µM, first compound 0.000316 µM
[8] = second compound 0.316 µM, first compound 0.001 µM
[9] = second compound 0.316 µM, first compound 0.00316 µM
[10] = second compound 0.316 µM, first compound 0.01 µM
[11] = second compound 0.316 µM, first compound 0.0316 µM
[12] = second compound 0.316 µM, first compound 0.1 µM
[13] = second compound 1 µM, first compound 0.000316 µM
[14] = second compound 1 µM, first compound 0.001 µM
[15] = second compound 1 µM, first compound 0.00316 µM
[16] = second compound 1 µM, first compound 0.01 µM
[17] = second compound 1 µM, first compound 0.0316 µM
[18] = second compound 1 µM, first compound 0.1 µM
[19] = second compound 3.16 µM, first compound 0.000316 µM
[20] = second compound 3.16 µM, first compound 0.001 µM
[21] = second compound 3.16 µM, first compound 0.00316 µM
[22] = second compound 3.16 µM, first compound 0.01 µM
[23] = second compound 3.16 µM, first compound 0.0316 µM
[24] = second compound 3.16 µM, first compound 0.1 µM
[25] = second compound 10 µM, first compound 0.000316 µM
[26] = second compound 10 µM, first compound 0.001 µM
[27] = second compound 10 µM, first compound 0.00316 µM
[28] = second compound 10 µM, first compound 0.01 µM
[29] = second compound 10 µM, first compound 0.0316 µM
[30] = second compound 10 µM, first compound 0.1 µM

## CC(C)CC(NC(=O)C(Cc1ccccc1)NC(=O)c1cnccn1)B(O)O (stereo not given) + NC1CC1c1ccc(-c2cccc(O)c2)cc1
Second compound 0.1 µM
  IC50: 0.406 nM
Second compound 0.316 µM
  IC50: 0.444 nM
Second compound 1 µM
  IC50: 0.446 nM
Second compound 3.16 µM
  IC50: 0.374 nM
Second compound 10 µM
  IC50: < 0.316 nM
[1]
  viability, T/C: 63.8%
[2]
  viability, T/C: 0.34%
[3]
  viability, T/C: 0.19%
[4]
  viability, T/C: 0.14%
[5]
  viability, T/C: 0.14%
[6]
  viability, T/C: 0.24%
[7]
  viability, T/C: 70.6%
[8]
  viability, T/C: 0.44%
[9]
  viability, T/C: 0.17%
[10]
  viability, T/C: 0.12%
[11]
  viability, T/C: 0.15%
[12]
  viability, T/C: 0.21%
[13]
  viability, T/C: 71.2%
[14]
  viability, T/C: 0.42%
[15]
  viability, T/C: 0.22%
[16]
  viability, T/C: 0.31%
[17]
  viability, T/C: 0.13%
[18]
  viability, T/C: 0.22%
[19]
  viability, T/C: 58.4%
[20]
  viability, T/C: 0.35%
[21]
  viability, T/C: 0.22%
[22]
  viability, T/C: 0.16%
[23]
  viability, T/C: 0.14%
[24]
  viability, T/C: 0.24%
[25]
  viability, T/C: 41.6%
[26]
  viability, T/C: 0.43%
[27]
  viability, T/C: 0.48%
[28]
  viability, T/C: 0.28%
[29]
  viability, T/C: 0.26%
[30]
  viability, T/C: 0.34%

## CC(C)CC(NC(=O)CNC(=O)c1cc(Cl)ccc1Cl)B1OC(=O)CC(CC(=O)O)(C(=O)O)O1 (stereo not given) + NC1CC1c1ccc(-c2cccc(O)c2)cc1
Second compound 0.1 µM
  IC50: 7.7 nM
Second compound 0.316 µM
  IC50: 7.44 nM
Second compound 1 µM
  IC50: 7.44 nM
Second compound 3.16 µM
  IC50: 7.35 nM
Second compound 10 µM
  IC50: 6.63 nM
[1]
  viability, T/C: 98.9%
[2]
  viability, T/C: 103%
[3]
  viability, T/C: 105%
[4]
  viability, T/C: 34.6%
[5]
  viability, T/C: 1.61%
[6]
  viability, T/C: 0.3%
[7]
  viability, T/C: 108%
[8]
  viability, T/C: 101%
[9]
  viability, T/C: 97.3%
[10]
  viability, T/C: 33.7%
[11]
  viability, T/C: 1.47%
[12]
  viability, T/C: 0.31%
[13]
  viability, T/C: 105%
[14]
  viability, T/C: 103%
[15]
  viability, T/C: 102%
[16]
  viability, T/C: 32.1%
[17]
  viability, T/C: 1.86%
[18]
  viability, T/C: 0.31%
[19]
  viability, T/C: 110%
[20]
  viability, T/C: 106%
[21]
  viability, T/C: 98.4%
[22]
  viability, T/C: 32.5%
[23]
  viability, T/C: 1.08%
[24]
  viability, T/C: 0.3%
[25]
  viability, T/C: 103%
[26]
  viability, T/C: 102%
[27]
  viability, T/C: 87%
[28]
  viability, T/C: 29.6%
[29]
  viability, T/C: 0.75%
[30]
  viability, T/C: 0.39%

## COc1cc(Nc2ncc3c(n2)-c2ccc(Cl)cc2C(c2c(F)cccc2OC)=NC3)ccc1C(=O)O + NC1CC1c1ccc(-c2cccc(O)c2)cc1
Second compound 0.1 µM
  IC50: 28.5 nM
Second compound 0.316 µM
  IC50: 37 nM
Second compound 1 µM
  IC50: 35.9 nM
Second compound 3.16 µM
  IC50: 30.1 nM
Second compound 10 µM
  IC50: 41.2 nM
[3]
  viability, T/C: 69.2%
[4]
  viability, T/C: 61.6%
[5]
  viability, T/C: 48.2%
[6]
  viability, T/C: 35.7%
Second compound 0.1 µM, first compound 0.316 µM
  viability, T/C: 30.2%
Second compound 0.1 µM, first compound 1 µM
  viability, T/C: 16.3%
[9]
  viability, T/C: 64.9%
[10]
  viability, T/C: 64.5%
[11]
  viability, T/C: 50.2%
[12]
  viability, T/C: 37.5%
Second compound 0.316 µM, first compound 0.316 µM
  viability, T/C: 26%
Second compound 0.316 µM, first compound 1 µM
  viability, T/C: 15.8%
[15]
  viability, T/C: 78.4%
[16]
  viability, T/C: 62.1%
[17]
  viability, T/C: 51.5%
[18]
  viability, T/C: 40.5%
Second compound 1 µM, first compound 0.316 µM
  viability, T/C: 27.1%
Second compound 1 µM, first compound 1 µM
  viability, T/C: 16.2%
[21]
  viability, T/C: 65.9%
[22]
  viability, T/C: 58.4%
[23]
  viability, T/C: 49.8%
[24]
  viability, T/C: 38.5%
Second compound 3.16 µM, first compound 0.316 µM
  viability, T/C: 27.9%
Second compound 3.16 µM, first compound 1 µM
  viability, T/C: 15%
[27]
  viability, T/C: 64.3%
[28]
  viability, T/C: 62.1%
[29]
  viability, T/C: 53.1%
[30]
  viability, T/C: 38.7%
Second compound 10 µM, first compound 0.316 µM
  viability, T/C: 31.1%
Second compound 10 µM, first compound 1 µM
  viability, T/C: 17.2%

## O=C(C=Cc1cccc(S(=O)(=O)Nc2ccccc2)c1)NO + NC1CC1c1ccc(-c2cccc(O)c2)cc1
Second compound 0.1 µM
  IC50: 165 nM
Second compound 0.316 µM
  IC50: 165 nM
Second compound 1 µM
  IC50: 171 nM
Second compound 3.16 µM
  IC50: 178 nM
Second compound 10 µM
  IC50: 157 nM
Second compound 0.1 µM, first compound 0.00949 µM
  viability, T/C: 110%
Second compound 0.1 µM, first compound 0.03 µM
  viability, T/C: 111%
Second compound 0.1 µM, first compound 0.0949 µM
  viability, T/C: 81.1%
Second compound 0.1 µM, first compound 0.3 µM
  viability, T/C: 16.3%
Second compound 0.1 µM, first compound 0.949 µM
  viability, T/C: 6.97%
Second compound 0.1 µM, first compound 3 µM
  viability, T/C: 0.3%
Second compound 0.316 µM, first compound 0.00949 µM
  viability, T/C: 107%
Second compound 0.316 µM, first compound 0.03 µM
  viability, T/C: 115%
Second compound 0.316 µM, first compound 0.0949 µM
  viability, T/C: 80.4%
Second compound 0.316 µM, first compound 0.3 µM
  viability, T/C: 16.8%
Second compound 0.316 µM, first compound 0.949 µM
  viability, T/C: 5.12%
Second compound 0.316 µM, first compound 3 µM
  viability, T/C: 0.27%
Second compound 1 µM, first compound 0.00949 µM
  viability, T/C: 114%
Second compound 1 µM, first compound 0.03 µM
  viability, T/C: 109%
Second compound 1 µM, first compound 0.0949 µM
  viability, T/C: 85.6%
Second compound 1 µM, first compound 0.3 µM
  viability, T/C: 15.9%
Second compound 1 µM, first compound 0.949 µM
  viability, T/C: 5.57%
Second compound 1 µM, first compound 3 µM
  viability, T/C: 0.28%
Second compound 3.16 µM, first compound 0.00949 µM
  viability, T/C: 111%
Second compound 3.16 µM, first compound 0.03 µM
  viability, T/C: 111%
Second compound 3.16 µM, first compound 0.0949 µM
  viability, T/C: 87.8%
Second compound 3.16 µM, first compound 0.3 µM
  viability, T/C: 18.4%
Second compound 3.16 µM, first compound 0.949 µM
  viability, T/C: 5.71%
Second compound 3.16 µM, first compound 3 µM
  viability, T/C: 0.36%
Second compound 10 µM, first compound 0.00949 µM
  viability, T/C: 108%
Second compound 10 µM, first compound 0.03 µM
  viability, T/C: 102%
Second compound 10 µM, first compound 0.0949 µM
  viability, T/C: 71.7%
Second compound 10 µM, first compound 0.3 µM
  viability, T/C: 21.7%
Second compound 10 µM, first compound 0.949 µM
  viability, T/C: 5.51%
Second compound 10 µM, first compound 3 µM
  viability, T/C: 0.42%
